Numbers after ± are expanded uncertainties.
Assays:
[1] = refractive index (Na D-line) (dimensionless); details: 298.15 K; 101.3 kPa; Liquid; Standard Abbe refractometry
[2] = Liquid; Ebulliometric method (Recirculating still)

SMILES | refractive index [1] | Normal boiling temperature [2]
CC(C)c1ccccc1 [isopropylbenzene] | 1.48829 ± 0.00053 | 152.48 ± 0.1 °C
C1CCOC1 [tetrahydrofuran] | 1.40443 ± 0.0005 | 66.1 ± 0.1 °C
C1CCOCC1 [tetrahydropyran] | 1.41899 ± 0.00063 | 88.16 ± 0.1 °C
